# Data published in patent US20240044922A1, “DEVICE AND METHODS FOR MEASURING PLATELET-FIBRIN CLOT CONTRACTION KINETICS” (University of Kentucky Research Foundation, priority 2022, published 2024).
# Tested on: washed mouse platelets
# Assay: Clot contraction assay, time-lapse imaging of washed mouse platelets with thrombin, fibrinogen and CaCl2
# Assay type: cell-based
# [1] = blebbistatin 50 μM, standard conditions
# [2] = blebbistatin 100 μM, standard conditions
# [3] = blebbistatin 200 μM, standard conditions
# [4] = CaCl2 0.1 mM, thrombin 20 mU/mL, fibrinogen 250 μg/mL
# [5] = CaCl2 0.5 mM, thrombin 20 mU/mL, fibrinogen 250 μg/mL
# [6] = CaCl2 1 mM, thrombin 20 mU/mL, fibrinogen 250 μg/mL
smiles,measurement,setting,value
"O=CC[C@@H](O)[C@H](O)[C@H](O)CO [2DG, 2-deoxyglucose, reference compound]",Reduction of Phase 3 rate,10 mM 2DG,~5 fold
same,AUC,"2DG 5 mM, standard conditions",6.10 AU
same,Average Velocity,"2DG 5 mM, standard conditions",0.74 %/min
same,Clot Contraction Extent,"2DG 5 mM, standard conditions",72.66%
same,Lag time,"2DG 5 mM, standard conditions",23.33 min
same,PHASE 1 % Contraction,"2DG 5 mM, standard conditions",2.68%
same,PHASE 1 Rate 1,"2DG 5 mM, standard conditions",2.00 ×10^−3 %/min
same,PHASE 1 t1,"2DG 5 mM, standard conditions",11.67 min
same,PHASE 2 % Contraction,"2DG 5 mM, standard conditions",16.98%
same,PHASE 2 Rate 2,"2DG 5 mM, standard conditions",0.88 %/min
same,PHASE 2 t2,"2DG 5 mM, standard conditions",30.33 min
same,PHASE 3 % Contraction,"2DG 5 mM, standard conditions",53%
same,PHASE 3 Rate 3,"2DG 5 mM, standard conditions",1.83 ×10^−2 %/min
same,AUC,"2DG 10 mM, standard conditions",7.44 AU
same,Average Velocity,"2DG 10 mM, standard conditions",0.51 %/min
same,Clot Contraction Extent,"2DG 10 mM, standard conditions",50.55%
same,Lag time,"2DG 10 mM, standard conditions",37.00 min
same,PHASE 1 % Contraction,"2DG 10 mM, standard conditions",5.82%
same,PHASE 1 Rate 1,"2DG 10 mM, standard conditions",3.33 ×10^−3 %/min
same,PHASE 1 t1,"2DG 10 mM, standard conditions",23.33 min
same,PHASE 2 % Contraction,"2DG 10 mM, standard conditions",13.04%
same,PHASE 2 Rate 2,"2DG 10 mM, standard conditions",0.69 %/min
same,PHASE 2 t2,"2DG 10 mM, standard conditions",44.33 min
same,PHASE 3 % Contraction,"2DG 10 mM, standard conditions",31.68%
same,PHASE 3 Rate 3,"2DG 10 mM, standard conditions",0.87 ×10^−2 %/min
same,Detection of the three phases of contraction,2DG 25 mM,none of the three phases were detectible
same,AUC,"2DG 25 mM, standard conditions",8.57 AU
same,Average Velocity,"2DG 25 mM, standard conditions",0.24 %/min
same,Clot Contraction Extent,"2DG 25 mM, standard conditions",23.45%
same,Lag time,"2DG 25 mM, standard conditions",99.00 min
same,Effect on average velocity,varying 2DG concentrations,significant inhibitory effects
same,Effect on extent of contraction,varying 2DG concentrations,significant inhibitory effects
same,Effect on lag time,varying 2DG concentrations,prolonged lag time
"Cc1ccc2c(c1)C(=O)C1(O)CCN(c3ccccc3)C1=N2 (centres unmarked) [Blebbistatin, blebbistatin, reference compound]",AUC,[1],4.18 AU
same,Average Velocity,[1],1.00 %/min
same,Clot Contraction Extent,[1],96.93%
same,Lag time,[1],23.33 min
same,PHASE 1 % Contraction,[1],4.23%
same,PHASE 1 Rate 1,[1],3.67 ×10^−3 %/min
same,PHASE 1 t1,[1],14.33 min
same,PHASE 2 % Contraction,[1],26.51%
same,PHASE 2 Rate 2,[1],1.40 %/min
same,PHASE 2 t2,[1],32.00 min
same,PHASE 3 % Contraction,[1],66.19%
same,PHASE 3 Rate 3,[1],5.00 ×10^−2 %/min
same,AUC,[2],6.08 AU
same,Average Velocity,[2],0.88 %/min
same,Clot Contraction Extent,[2],85.15%
same,Lag time,[2],40.00 min
same,PHASE 1 % Contraction,[2],7.21%
same,PHASE 1 Rate 1,[2],4.00 ×10^−3 %/min
same,PHASE 1 t1,[2],24.67 min
same,PHASE 2 % Contraction,[2],28.71%
same,PHASE 2 Rate 2,[2],1.00 %/min
same,PHASE 2 t2,[2],51.00 min
same,PHASE 3 % Contraction,[2],49.27%
same,PHASE 3 Rate 3,[2],3.47 ×10^−2 %/min
same,AUC,[3],6.79 AU
same,Average Velocity,[3],0.69 %/min
same,Clot Contraction Extent,[3],66.52%
same,Lag time,[3],43.67 min
same,PHASE 1 % Contraction,[3],12.21%
same,PHASE 1 Rate 1,[3],5.00 ×10^−3 %/min
same,PHASE 1 t1,[3],31.00 min
same,PHASE 2 % Contraction,[3],14.17%
same,PHASE 2 Rate 2,[3],0.69 %/min
same,PHASE 2 t2,[3],49.33 min
same,PHASE 3 % Contraction,[3],40.15%
same,PHASE 3 Rate 3,[3],1.70 ×10^−2 %/min
same,Effect on Phase 2 contraction rate,blebbistatin 50 to 200 μM,drastic decrease
same,Effect on average velocity,blebbistatin 50 to 200 μM,decrease
same,Effect on extent of clot contraction,blebbistatin 50 to 200 μM,decrease
same,Effect on lag time,blebbistatin 50 to 200 μM,dose-dependent increase
[Ca+2].[Cl-].[Cl-] [CaCl2],AUC,[4],3.78 AU
same,Average Velocity,[4],0.98 %/min
same,Clot Contraction Extent,[4],97.02%
same,Lag time,[4],15.00 min
same,PHASE 1 % Contraction,[4],2.91%
same,PHASE 1 Rate 1,[4],5.00 ×10^−3 %/min
same,PHASE 1 t1,[4],7.00 min
same,PHASE 2 % Contraction,[4],29.63%
same,PHASE 2 Rate 2,[4],1.51 %/min
same,PHASE 2 t2,[4],27.33 min
same,PHASE 3 % Contraction,[4],64.48%
same,PHASE 3 Rate 3,[4],1.51 ×10^−2 %/min
same,AUC,[5],3.93 AU
same,Average Velocity,[5],0.96 %/min
same,Clot Contraction Extent,[5],95.36%
same,Lag time,[5],15.67 min
same,PHASE 1 % Contraction,[5],3.27%
same,PHASE 1 Rate 1,[5],4.67 ×10^−3 %/min
same,PHASE 1 t1,[5],8.33 min
same,PHASE 2 % Contraction,[5],27.00%
same,PHASE 2 Rate 2,[5],1.43 %/min
same,PHASE 2 t2,[5],28.00 min
same,PHASE 3 % Contraction,[5],65.48%
same,PHASE 3 Rate 3,[5],1.43 ×10^−2 %/min
same,AUC,[6],3.69 AU
same,Average Velocity,[6],0.99 %/min
same,Clot Contraction Extent,[6],98.08%
same,Lag time,[6],17.67 min
same,PHASE 1 % Contraction,[6],5.50%
same,PHASE 1 Rate 1,[6],5.00 ×10^−3 %/min
same,PHASE 1 t1,[6],12.33 min
same,PHASE 2 % Contraction,[6],31.17%
same,PHASE 2 Rate 2,[6],1.87 %/min
same,PHASE 2 t2,[6],30.00 min
same,PHASE 3 % Contraction,[6],61.41%
same,PHASE 3 Rate 3,[6],1.87 ×10^−2 %/min
same,Differences in clot contraction,calcium between 0.1 and 1 mM,limited differences
